Values quoted from earlier work as cited in US20170209576A1, “DELIVERY COMPOSITIONS AND METHODS” (REGENTS OF THE UNIVERSITY OF MINNESOTA, priority 2014, published 2017).

What was measured:
[1] = aqueous solution
[2] = micropipette techniques

| Compound | critical micelle concentration (CMC) [1] [µM] | pKa of terminal amine group | rate of adsorption of monomers into the outer bilayer leaflet [2] [s⁻¹] |
| --- | --- | --- | --- |
| 1,2-Distearoyl-sn-glycero-3-phosphoethanolamine (DSPE)-PEG^2000 [DSPE-PEG^2000] | 5.8 | – | – |
| CCCCCCCCCCCCCCCC(=O)OCC(COP(=O)(O)OCCN)OC(=O)CCCCCCCCCCCCCCC (stereo not shown) [DPPE, dipalmitoylphosphatidylethanolamine] | – | 9.8 | – |
| CCCCCCCCCCCCCCCC(=O)OC[C@@H](O)COP(=O)([O-])OCC[N+](C)(C)C [MPPC, monopalmitoyl phosphatidyl choline] | 4 | – | 0.2 |
